# Measured values reported in PMC10044245, “Comparative Evaluation of Existing and Rationally Designed Novel Antimicrobial Peptides for Treatment of Skin and Soft Tissue Infections” (Antibiotics, 2023).
# Where a SMILES comes first, the peptide text is derived from it.
# Columns and labels:
# E. coli = assay: microbe, parasite or virus in culture; assay type: cell-based, Escherichia coli
# Procedure: (§1) Quantification of the antimicrobial resistance against various AMPs was carried out by measuring the bacterial growth in the presence of peptides at serial dilutes in 96 well plates in a microplate (96-well plate) reader Infinite® M200 PRO Multimode Microplate Reader (Tecan, Maennedorf, Switzerland) according to our recent reports. All bacterial strains were incubated at 32 °C for 13–18 h at 200 rpm. Optical density measurements (λ = 550 nm) were taken automatically at 10 min intervals. Antimicrobial resistance activity was quantified as the minimum inhibitory concentration (MIC)—the lowest concentration of a peptide which prevents growth of bacterial cells.
# P. aeruginosa = assay: microbe, parasite or virus in culture; assay type: cell-based, Pseudomonas aeruginosa
# Procedure: as §1
# K. pneumonia = assay: microbe, parasite or virus in culture; assay type: cell-based, Klebsiella pneumoniae
# Procedure: as §1
# E. faecium = assay: microbe, parasite or virus in culture; assay type: cell-based, Enterococcus faecium
# Procedure: as §1
# S. aureus = assay: microbe, parasite or virus in culture; assay type: cell-based, Staphylococcus aureus
# Procedure: as §1
# C. acnes = assay: microbe, parasite or virus in culture; assay type: cell-based, Cutibacterium acnes
# Procedure: as §1
# [1] = tested on: BALB/c 3T3 murine fibroblast cell line; assay: Cytotoxicity, neutral red uptake assay; assay type: cell-based
# Text: (§2) The BALB/c 3T3 murine fibroblast cell line was obtained from ATCC (American Type Culture Collection, Manassas, VA, USA). Primary human dermal fibroblasts were isolated by enzymatic digestion from skin biopsies in the Laboratory of Bioanalytical and Biodosimetry Methods, University of Latvia, in accordance with the approval of the Committee of Research Ethics of the Institute of Cardiology and Regenerative Medicine, University of Latvia. Cells were propagated in DMEM medium (Sigma, Irvine, UK), supplemented with 1% penicillin (100 U/mL)–streptomycin (100 μg/mL), and 10% calf serum (Sigma, St. Louis, MO, USA) for Balb/c 3T3 cell line and fetal bovine serum (Sigma, St. Louis, MO, USA) for primary dermal fibroblasts. All cultivations were performed in a humidified 5% CO2 atmosphere at 37 °C.
# (§3) The cytotoxicity of the peptides was tested in the BALB/c3T3 cell line and primary dermal fibroblasts by the neutral red (NR) uptake assay. Cells were seeded in 96-well plates at a density of 5 × 10^3 cells per well. After 24 h of incubation, peptides in a concentration range of 3.9 to 500 μg/mL were added. Dilutions were made in a cell cultivation medium. Cultivation in the presence of extracts was performed for 48 h. Afterwards, plates were washed with phosphate-buffered saline (PBS) (Sigma, Irvine, UK), and a 25 µg/mL NR solution (Sigma, Irvine, UK) diluted in 5%-fetal-calf-serum-containing-media was added. After 3 h, incubation in a humidified 5% CO2 atmosphere at 37 °C, the plate was washed with PBS, and the NR taken up by viable cells was extracted using desorbing fixative (50% ethanol/1% acetic acid/49% water). Absorbance at 540 nm was measured using a microplate reader Tecan Infinite® 200 PRO (Tecan Group Ltd., Mannedorf, Switzerland). Cytotoxicity was expressed as a concentration-dependent reduction in the uptake of NR, compared to the untreated controls and calculated using the following equation: Cell viability (%)=Abs540nm(treatment)−Abs540nm(background)/Abs540nm(untreated control)−Abs540nm(background)×100%
# [2] = tested on: primary human dermal fibroblasts; assay type: cell-based; conditions: 48 h
# Text: as §2, §3
# [3] = tested on: fresh human blood (red blood cell lysis); assay: Hemolysis assay; assay type: cell-based; conditions: for hemolysis ratio (HR): red cells of human, 1 h
# Procedure: A hemolysis test was performed to assess the hemocompatibility of the peptides. Blood from healthy donors was collected in Monovette vacutainers containing Ethylenediamine tetra-acetic acid (EDTA). Blood was diluted with 0.9% sodium chloride solution supplemented with 10 U/mL heparin (4:5 ratio by volume). Peptides were added to 1.5 mL vials containing fresh 0.49 mL PBS and incubated at 37 °C and 5% CO2 for 30 min, and 10 μL of diluted blood was added to each vial and incubated at 37 °C and 5% CO2 for 1 h. PBS was used as a negative control and deionized water was used as a positive control. After incubation tubes were centrifuged at 3000 rpm for 5 min, the supernatants were collected, and the absorbance was measured at a wavelength of 545 nm in a microplate reader Tecan Infinite® 200 PRO (Tecan Group Ltd., Mannedorf, Switzerland).
# The hemolytic ratio (HR) was calculated by the following equation: HR (%)=(Abs(sample)−Abs(negative control))/(Abs (positive control−Abs(negative control))×100%
structure (smiles),measurement,setting,value
CC[C@H](C)[C@H](NC(=O)[C@H](CCCCN)NC(=O)[C@@H](N)CCCCN)C(=O)N[C@@H](C)C(=O)N[C@@H](CCCCN)C(=O)N[C@@H](CCCCN)C(=O)N[C@@H](Cc1ccccc1)C(=O)N[C@@H](Cc1c[nH]c2ccccc12)C(=O)N[C@@H](CCCCN)C(=O)N[C@@H](CCCCN)C(=O)N[C@@H](Cc1ccccc1)C(=O)N[C@@H](Cc1c[nH]c2ccccc12)C(=O)N[C@@H](CCCCN)C(=O)N[C@@H](Cc1ccccc1)C(=O)N[C@@H](Cc1c[nH]c2ccccc12)C(=O)N[C@@H](CCCCN)C(=O)N[C@H](C(=O)N[C@@H](Cc1ccccc1)C(=O)N[C@@H](CCCCN)C(=O)N[C@@H](CCCCN)C(=O)O)[C@@H](C)CC [Peptide R10] (H-KKIAKKFWKKFWKFWKIFKK-OH),Therapeutic Index E. coli,E. coli,19.1
same,MIC P. aeruginosa,P. aeruginosa,2.0 µg/mL
same,Therapeutic Index P. aeruginosa,P. aeruginosa,19.1
same,MIC K. pneumonia,K. pneumonia,8.0 µg/mL
same,Therapeutic Index K. pneumonia,K. pneumonia,4.77
same,MIC E. faecium,E. faecium,4.0 µg/mL
same,Therapeutic Index E. faecium,E. faecium,9.55
same,MIC S. aureus,S. aureus,4.0 µg/mL
same,Therapeutic Index S. aureus,S. aureus,9.55
same,MIC C. acnes,C. acnes,0.5 µg/mL
same,Therapeutic Index C. acnes,C. acnes,76.38
same,"IC50, viability of Balb/c 3T3 cells",[1]; 48 h,86.99 µg/mL
same,"IC50, viability of human primary dermal fibroblasts",[2],38.19 µg/mL
same,hemolytic activity,[3],strong hemolytic activity
CC[C@H](C)[C@H](NC(=O)[C@H](Cc1ccccc1)NC(=O)[C@H](CCCCN)NC(=O)[C@H](CCCCN)NC(=O)[C@H](Cc1ccccc1)NC(=O)[C@H](CCCCN)NC(=O)[C@H](CCCCN)NC(=O)[C@H](C)NC(=O)[C@H](Cc1ccccc1)NC(=O)[C@H](CCCCN)NC(=O)[C@H](CCCCN)NC(=O)[C@@H](NC(=O)[C@@H](N)Cc1ccccc1)[C@@H](C)CC)C(=O)N[C@@H](CCCCN)C(=O)N[C@@H](CCCCN)C(=O)N[C@@H](Cc1ccccc1)C(=O)N[C@@H](C)C(=O)N[C@@H](CCCCN)C(=O)N[C@@H](Cc1ccccc1)C(=O)N[C@@H](C)C(=O)N[C@@H](Cc1ccccc1)C(=O)N[C@@H](C)C(=O)N[C@@H](Cc1ccccc1)C(=O)O [Peptide R1] (H-FIKKFAKKFKKFIKKFAKFAFAF-OH; N-terminus and C-terminus assumed),MIC E. coli,E. coli,8.0 µg/mL
same,MIC P. aeruginosa,P. aeruginosa,8.0 µg/mL
same,MIC K. pneumonia,K. pneumonia,4.0 µg/mL
same,MIC E. faecium,E. faecium,16.0 µg/mL
same,MIC S. aureus,S. aureus,8.0 µg/mL
same,MIC C. acnes,C. acnes,2.0 µg/mL
same,Therapeutic Index C. acnes,C. acnes,64.04
same,"IC50, viability of Balb/c 3T3 cells",[1]; 48 h,63.84 µg/mL
same,decrease of cell viability,"[1]; Balb/c 3T3, at 15.63 μg/mL and above",more than 62%
same,"IC50, viability of human primary dermal fibroblasts",[2],128.07 µg/mL
CC(C)C[C@H](NC(=O)[C@H](C)NC(=O)[C@H](CCCCN)NC(=O)[C@H](CC(C)C)NC(=O)[C@H](C)NC(=O)[C@H](CCCCN)NC(=O)[C@H](CC(C)C)NC(=O)[C@H](CC(C)C)NC(=O)[C@H](C)NC(=O)[C@H](CCCCN)NC(=O)[C@H](CC(C)C)NC(=O)[C@H](C)NC(=O)[C@H](CCCCN)NC(=O)[C@H](C)NC(=O)[C@@H](N)Cc1ccccc1)C(=O)O [Oligo10] (H-FAKALKALLKALKAL-OH),MIC E. coli,E. coli,16.0 µg/mL
same,MIC P. aeruginosa,P. aeruginosa,63.0 µg/mL
same,MIC K. pneumonia,K. pneumonia,63.0 µg/mL
same,MIC E. faecium,E. faecium,16.0 µg/mL
same,MIC S. aureus,S. aureus,4.0 µg/mL
same,MIC C. acnes,C. acnes,2.0 µg/mL
same,"IC50, viability of Balb/c 3T3 cells",[1]; 48 h,218.21 µg/mL
same,"IC50, viability of human primary dermal fibroblasts",[2],241.54 µg/mL
same,concentration with mild hemolytic activity,[3],16000 ng/mL
CC[C@H](C)[C@H](NC(=O)[C@H](CCCCN)NC(=O)[C@@H](N)CCCCN)C(=O)N[C@@H](C)C(=O)N[C@@H](CCCCN)C(=O)N[C@@H](CCCCN)C(=O)N[C@@H](Cc1ccccc1)C(=O)N[C@@H](Cc1c[nH]c2ccccc12)C(=O)N[C@@H](CCCCN)C(=O)N[C@@H](CCCCN)C(=O)N[C@@H](Cc1ccccc1)C(=O)N[C@@H](Cc1c[nH]c2ccccc12)C(=O)N[C@@H](CCCCN)C(=O)N[C@@H](Cc1ccccc1)C(=O)N[C@@H](Cc1c[nH]c2ccccc12)C(=O)N1CCC[C@H]1C(=O)N[C@@H](CCCCN)C(=O)N[C@@H](Cc1ccccc1)C(=O)N[C@@H](Cc1c[nH]c2ccccc12)C(=O)N[C@@H](CCCCN)C(=O)N[C@H](C(=O)N[C@@H](Cc1ccccc1)C(=O)N[C@@H](CCCCN)C(=O)N[C@@H](CCCCN)C(=O)O)[C@@H](C)CC [Peptide R14] (H-KKIAKKFWKKFWKFWPKFWKIFKK-OH),MIC E. coli,E. coli,16.0 µg/mL
same,Therapeutic Index E. coli,E. coli,2.2
same,MIC P. aeruginosa,P. aeruginosa,4.0 µg/mL
same,Therapeutic Index P. aeruginosa,P. aeruginosa,8.8
same,MIC K. pneumonia,K. pneumonia,4.0 µg/mL
same,Therapeutic Index K. pneumonia,K. pneumonia,8.8
same,MIC E. faecium,E. faecium,8.0 µg/mL
same,Therapeutic Index E. faecium,E. faecium,4.4
same,MIC S. aureus,S. aureus,8.0 µg/mL
same,Therapeutic Index S. aureus,S. aureus,4.4
same,MIC C. acnes,C. acnes,1.0 µg/mL
same,"IC50, viability of Balb/c 3T3 cells",[1]; 48 h,21.07 µg/mL
same,hemolytic activity,[3],strong hemolytic activity
same,hemolysis ratio (HR),[3],> 5%
CC(C)C[C@H](NC(=O)[C@H](CS)NC(=O)[C@H](Cc1ccccc1)NC(=O)[C@@H](N)CCCCN)C(=O)N[C@@H](CCCCN)C(=O)N[C@@H](Cc1ccccc1)C(=O)N[C@@H](CS)C(=O)N[C@@H](Cc1ccccc1)C(=O)N[C@@H](CCCCN)C(=O)NCC(=O)N[C@@H](Cc1ccccc1)C(=O)N[C@@H](CS)C(=O)N[C@@H](Cc1ccccc1)C(=O)N[C@@H](CCCCN)C(=O)N[C@@H](C)C(=O)N[C@@H](CS)C(=O)NCC(=O)N[C@@H](CCCCN)C(=O)O [Peptide R11] (H-KFCLKFCFKGFCFKACGK-OH; N-terminus and C-terminus assumed),Therapeutic Index E. coli,E. coli,0.9
same,Therapeutic Index P. aeruginosa,P. aeruginosa,1.7
same,Therapeutic Index K. pneumonia,K. pneumonia,1.7
same,Therapeutic Index E. faecium,E. faecium,6.7
same,Therapeutic Index S. aureus,S. aureus,6.7
same,MIC C. acnes,C. acnes,0.3 µg/mL
same,Therapeutic Index C. acnes,C. acnes,356.7
same,concentrations not cytotoxic,"[1]; Balb/c 3T3, neutral red uptake, 48 h, tested 3.9–500 μg/mL",3900 ng/mL
same,hemolysis ratio (HR),[3]; 32 μg/mL,below 2%
same,hemolysis ratio (HR),[3]; 64 μg/mL,2.85–7.03%
